The structures appear in SMILES notation. Where a name gives a salt, the structure may show the parent alone. Bounds are passed on as bounds.

The source of these data is patent US20080318933A1, “5-Sulfonyl-1-Piperidinyl Substituted Indole Derivatives as 5-Ht6 Receptor Antagonists for the Treatment of Cns Disorders” (Glaxo Group Limited, priority 2004, published 2008).

For the assay, the target named is T1, human cloned 5-HT6 receptors (Homo sapiens, UniProt P50406).
T1 construct: expressed in transfected cells; host or cells: HeLa cells expressing cloned human 5-HT6 receptor (membranes)
T1 sequence (P50406 whole entry): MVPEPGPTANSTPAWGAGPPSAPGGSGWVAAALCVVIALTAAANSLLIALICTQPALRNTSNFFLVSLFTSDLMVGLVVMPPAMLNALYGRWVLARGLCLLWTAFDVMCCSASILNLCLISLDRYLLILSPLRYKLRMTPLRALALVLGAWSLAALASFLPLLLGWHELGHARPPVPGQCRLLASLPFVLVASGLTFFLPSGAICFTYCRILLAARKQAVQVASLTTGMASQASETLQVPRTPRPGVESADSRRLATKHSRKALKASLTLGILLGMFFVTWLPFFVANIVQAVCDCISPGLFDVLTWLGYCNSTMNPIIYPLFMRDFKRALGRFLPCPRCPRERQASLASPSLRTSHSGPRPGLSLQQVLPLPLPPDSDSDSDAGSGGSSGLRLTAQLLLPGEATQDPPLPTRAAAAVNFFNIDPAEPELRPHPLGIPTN
Description: Cyclase assay (cAMP production in membranes of HeLa 5HT6 cells, 5-HT stimulated). The following applies: 5-HT at 4xEC50, functional Ki by Cheng-Prusoff, read-out: pKi values (converted). The assay is classed as biochemical. The procedure:
0.5 μl of test compound in 100% dimethylsulfoxide (DMSO) was added to a white, solid 384 well assay plate (for dose response measurements the top of the concentration range is 7.5 μM final). 10 μl of washed membranes of HeLa 5HT6 cells (for preparation see WO 98/27081) in basic buffer (50 mM HEPES pH 7.4 (KOH), 10 mM MgCl2, 100 mM NaCl, 10 μM 3-isobutyl-1-methylxanthine (IBMX) (Sigma-Aldrich)) was added to all wells followed by 10 μl 2×ATP buffer (i.e. basic buffer containing 3 mM ATP) with 5-HT (at a concentration equivalent to a dose response of 4×EC50). The resultant mixture was then incubated at room temperature for 30-45 minutes to allow cAMP production. cAMP production was then measured using the DiscoveRX™ HitHunter™ chemiluminescence cAMP assay kit (DiscoveRx Corporation, 42501 Albrae Street, Fremont, Calif. 94538; Product Code: 90-0004L) or any other suitable cAMP measurement assay.
IC50 values were estimated from arbitrary designated unit (ADU) measurements from a Perkin Elmer Viewlux instrument using a four parameter logistic curve fit within EXCEL (Bowen, W. P. and Jerman, J. C. (1995), Nonlinear regression using spreadsheets. Trends in Pharmacol. Sci., 16, 413-417). Functional Ki values were calculated using the method of Cheng, Y. C. and Prussof, W. H. (Biochemical Pharmacol (1973) 22 3099-3108). plC50 and fpKi are the negative log 10 of the molar IC50 and functional Ki respectively.
As for `CC(C)CN1CCC(N2CCc3cc(S(=O)(=O)c4ccccc4)ccc32)CC1` [Example E37, 1-[1-(2-Methylpropyl)-4-piperidinyl]-5-(phenylsulfonyl)-2,3-dihydro-1H-indole hydrochloride], the Ki was not above 10 nM.

As to `CC(C)(C)CN1CCC(N2CCc3cc(S(=O)(=O)c4ccccc4)ccc32)CC1` [Example E38, 1-[1-(2,2-dimethylpropyl)-4-piperidinyl]-5-(phenylsulfonyl)-2,3-dihydro 1H-indole], the Ki was less than 316 nM.

For the compound `CCN1CCC(N2CCc3cc(S(=O)(=O)c4ccccc4)ccc32)CC1` [Example E39, 1-(1-Ethyl-4-piperidinyl)-5-(phenylsulfonyl)-2,3-dihydro-1H-indole hydrochloride], the Ki is not above 10 nM.

For `CCCN1CCC(N2CCc3cc(S(=O)(=O)c4ccccc4)ccc32)CC1` [Example E40, 5-(Phenylsulfonyl)-1-(1-propyl-4-piperidinyl)-2,3-dihydro-1H-indole hydrochloride], the Ki was not above 10 nM.

For the compound `CN1CCC(N2CCc3cc(S(=O)(=O)c4ccc(F)cc4)ccc32)CC1` [Example E41, 5-[(4-Fluorophenyl)sulfonyl]-1-(1-methyl-4-piperidinyl)-2,3-dihydro-1H-indole hydrochloride], the Ki was not above 10 nM.

Consider `CCN1CCC(N2CCc3cc(S(=O)(=O)c4cc(F)ccc4F)ccc32)CC1` [Example E42, 5-[(2,5-Difluorophenyl)sulfonyl]-1-(1-ethyl-4-piperidinyl)-2,3-dihydro-1H-indole hydrochloride], for which the Ki is not above 10 nM.

As for `CC(C)N1CCC(N2CCc3cc(S(=O)(=O)c4cc(F)ccc4F)ccc32)CC1` [Example E43, 5-[(2,5-Difluorophenyl)sulfonyl]-1-[1-(1-methylethyl)-4-piperidinyl]-2,3-dihydro-1H-indole hydrochloride], the Ki was not above 10 nM.

As to `CCCN1CCC(N2CCc3cc(S(=O)(=O)c4cc(F)ccc4F)ccc32)CC1` [Example E44, 5-[(2,5-Difluorophenyl)sulfonyl]-1-(1-propyl-4-piperidinyl)-2,3-dihydro-1H-indole hydrochloride], the Ki is not above 10 nM.

`CC(C)N1CCC(N2CCc3cc(S(=O)(=O)c4ccccc4F)ccc32)CC1` [Example E45, 5-[(2-Fluorophenyl)sulfonyl]-1-[1-(1-methylethyl)-4-piperidinyl]-2,3-dihydro-1H-indole hydrochloride]: the Ki was not above 10 nM.

Consider `CCCN1CCC(N2CCc3cc(S(=O)(=O)c4ccccc4F)ccc32)CC1` [Example E46, 5-[(2-Fluorophenyl)sulfonyl]-1-(1-propyl-4-piperidinyl)-2,3-dihydro-1H-indole hydrochloride], for which the Ki was not above 10 nM.

`CN1CCC(N2CCc3cc(S(=O)(=O)c4cccc(F)c4)ccc32)CC1` [Example E47, 5-[(3-Fluorophenyl)sulfonyl]-1-(1-methyl-4-piperidinyl)-2,3-dihydro-1H-indole hydrochloride]: the Ki was not above 10 nM.

`CN1CCC(N2CCc3cc(S(=O)(=O)c4ccccc4F)ccc32)CC1` [Example E48, 5-[(2-Fluorophenyl)sulfonyl]-1-(1-methyl-4-piperidinyl)-2,3-dihydro-1H-indole hydrochloride]: the Ki is not above 10 nM.

In the case of `CN1CCC(N2CCc3cc(S(=O)(=O)c4ccccc4Cl)ccc32)CC1` [Example E49, 5-[(2-Chlorophenyl)sulfonyl]-1-(1-methyl-4-piperidinyl)-2,3-dihydro-1H-indole hydrochloride], the Ki was not above 10 nM.

For the compound `CN1CCC(N2CCc3cc(S(=O)(=O)c4cc(F)cc(F)c4)ccc32)CC1` [Example E50, 5-[(3,5-Difluorophenyl)sulfonyl]-1-(1-methyl-4-piperidinyl)-2,3-dihydro-1H-indole hydrochloride], the Ki is not above 10 nM.

Turning to `CCN1CCC(N2CCc3cc(S(=O)(=O)c4cc(F)cc(F)c4)ccc32)CC1` [Example E51, 5-[(3,5-Difluorophenyl)sulfonyl]-1-(1-ethyl-4-piperidinyl)-2,3-dihydro-1H-indole hydrochloride], the Ki is not above 10 nM.

For `CC(C)N1CCC(N2CCc3cc(S(=O)(=O)c4cc(F)cc(F)c4)ccc32)CC1` [Example E52, 5-[(3,5-Difluorophenyl)sulfonyl]-1-[1-(1-methylethyl)-4-piperidinyl)-2,3-dihydro-1H-indole hydrochloride], the Ki is not above 10 nM.

Regarding `CN1CCC(N2CCc3cc(S(=O)(=O)c4cccc(Cl)c4)ccc32)CC1` [Example E53, 5-[(3-Chlorophenyl)sulfonyl]-1-(1-methyl-4-piperidinyl)-2,3-dihydro-1H-indole hydrochloride], the Ki is not above 10 nM.

With `CCN1CCC(N2CCc3cc(S(=O)(=O)c4cccc(Cl)c4)ccc32)CC1` [Example E54, 5-[((3-Chlorophenyl)sulfonyl]-1-(1-ethyl-4-piperidinyl)-2,3-dihydro-1H-indole hydrochloride], the Ki was not above 10 nM.

With `CCN1CCC(N2CCc3cc(S(=O)(=O)c4cccc(F)c4)ccc32)CC1` [Example E55, 5-[(3-Fluorophenyl)sulfonyl]-1-(1-ethyl-4-piperidinyl)-2,3-dihydro-1H-indole hydrochloride], the Ki is not above 10 nM.

As for `CCCN1CCC(N2CCc3cc(S(=O)(=O)c4cccc(F)c4)ccc32)CC1` [Example E56, 5-[(3-Fluorophenyl)sulfonyl]-1-(1-propyl-4-piperidinyl)-2,3-dihydro-1H-indole hydrochloride], the Ki was not above 10 nM.

In the case of `CC(C)N1CCC(N2CCc3cc(S(=O)(=O)c4cccc(F)c4)ccc32)CC1` [Example E57, 5-[(3-Fluorophenyl)sulfonyl]-1-(1-(1-methylethyl)-4-piperidinyl)-2,3-dihydro-1H-indole hydrochloride], the Ki was not above 10 nM.

Take `CCN1CCC(N2CCc3cc(S(=O)(=O)c4ccccc4F)ccc32)CC1` [Example E58, 5-[(2-Fluorophenyl)sulfonyl]-1-(1-ethyl-4-piperidinyl)-2,3-dihydro-1H-indole hydrochloride]: the Ki was not above 10 nM.

With `CN1CCC(N2CCc3cc(S(=O)(=O)c4ccc(F)c(F)c4)ccc32)CC1` [Example E59, 5-[(3,4-Difluorophenyl)sulfonyl]-1-(1-methyl-4-piperidinyl)-2,3-dihydro-1H-indole hydrochloride], the Ki is not above 10 nM.

On to `CCN1CCC(N2CCc3cc(S(=O)(=O)c4ccc(F)c(F)c4)ccc32)CC1` [Example E60, 5-[(3,4-Difluorophenyl)sulfonyl]-1-(1-ethyl-4-piperidinyl)-2,3-dihydro-1H-indole hydrochloride], for which the Ki is not above 10 nM.

Consider `CCN1CCC(N2CCc3cc(S(=O)(=O)c4cccc(C)c4)ccc32)CC1` [Example E63, 5-[(3-Methylphenyl)sulfonyl]-1-(1-ethyl-4-piperidinyl)-2,3-dihydro-1H-indole hydrochloride], for which the Ki was not above 10 nM.

As to `CCCN1CCC(N2CCc3cc(S(=O)(=O)c4cccc(C)c4)ccc32)CC1` [Example E64, 5-[(3-Methylphenyl)sulfonyl]-1-(1-propyl-4-piperidinyl)-2,3-dihydro-1H-indole hydrochloride], the Ki is not above 10 nM.

For `Cc1cn(C2CCNCC2)c2ccc(S(=O)(=O)c3ccccc3)cc12` [Example E65, 3-Methyl-5-(phenylsulfonyl)-1-(4-piperidinyl)-1H-indole hydrochloride], the Ki is not above 10 nM.
